# Results: article PMC4728560 (Scientific Reports, 2016)
# Assays:
# [1] = tested on: cBidmt1+Bax; experiment: Control liposome permeabilization without Bcl-xL, cBidmt1+Bax; format: biochemical; conditions: 320 nM pH9 treated TCTP, 100 nM Bax, 20 nM cBidmt1
# Method: (§1) (A–E) in vitro reconstitution assay on liposome permeabilization. […] The treated Bcl-xL was then added to reactions containing ANTS-DPX liposomes, 100 nM Bax and 20 nM of either cBid (A,B) or cBidmt1(C,D) at pH 7. Liposome permeabilization was quantified by fluorescence after 5h incubation at 37 °C where 100% release was defined as the fluorescence change due to lipid solubilization with 1% Triton X-100. […] Error bars, std. dev. n = 3. To compare between the TCTP treated groups and the Control group statistically, two-way ANOVA test was performed for (A–D) and one-way ANOVA test was performed for (E). […] Colored asterisks above each data point indicate the statistical significance (*p < 0.05; **p < 0.01, no asterisks if p ≥ 0.05). A complete statistical analysis is provided in Supplementary Table 2–4. (F) Permeabilization assays of mitochondrial membrane by tBid and Bax assessing cytochrome c release. […] Cyto c extra-mito: in the supernatant, analysed by Western blot. […]
# Figure 10 A,B) or cBid mt1 (Supplementary Figure 10 C,D) at pH 7 to quantify the activity of Bcl-xL inhibition of liposome permeablization. […]
# the Control group (No TCTP) were analyzed through Dunnett's multiple comparisons test at each sample condition (Bcl-XL concentration) for statistical significance. […]
# Statistical significance was analyzed through Dunnett's multiple comparisons test. […]
# [2] = tested on: Bax mediated cytochrome c release, Bcl-xL; experiment: Cytochrome c release from purified mitochondria by tBid and Bax in the presence of Bcl-xL; format: biochemical; conditions: mouse liver mitochondria; 5 nM tBid, 50 nM Bax, 300 nM Bcl-xL; 15 min, 30 °C; Western blot; pre-incubation pH 9, 30 °C
# Method: as §1, with “2–4.” for “2–4. (F) Permeabilization assays of mitochondrial membrane by tBid and Bax assessing cytochrome c release.”
# to highlight the pre-incubation), pH 9, 30 C° before being added to the mitochondria at their final concentrations. […] Cytochrome c was detected in the mitochondrial fraction (Cyto c intra-mito) or in the supernatant (Cyto c extra-mito) by Western blot analysis. […]
# Cytochrome c release assay. […] Mitochondrial pellets and the corresponding supernatant fractions were subjected to SDS-polyacrylamide gel electrophoresis and analyzed by Western blotting for cytochrome c.
substance,measurement,setting,value
"TCTP: Translationally Controlled Tumor Protein (TCTP/tpt1), recombinant full-length",effect on cBidmt1-Bax induced permeabilization not containing Bcl-xL,[1],no effect
same,inhibition of cytochrome c release in the presence of Bcl-xL,[2],inhibit cytochrome c release in a concentration-dependent manner
